Measured values from patent US20060051835A1, “Pael receptor, cells and animal expressing pael receptor and method of screning remedy for parkinson's disease” (priority 2001, published 2006).

Tests used:
SH-SY5Y cells = test: Cell death assay in SH-SY5Y cells with or without Pael receptor overexpression; assay type: cell-based
Description: Descriptions concerning expression plasmids for Parkin, Parkin variants, UBCH6, UBCH7 and Ubiquitin are as described in Imai, Y. et al. (2000) J Biol Chem 275, 35661-35664. The full-length complementary strand DNAs (cDNAs) of human and mouse Pael receptors, human ETBR-LP-2, human UBC6, UBC7 and E2-25K were obtained by reverse transcription (RT)-PCR. The full-length cDNA of ETA-R and that of ETB-R were obtained from the RIKEN Gene Bank. Recombinant GST-Parkin, GST-A Ex 4, 6×His tagged UBC6 and UBC7 were produced in the Escherichia coli BL21 strain (DE3) pLysS (Novagen). Site-directed mutagenesis to the active center cysteine of UBC6 and UBC7 was performed by the PCR method. UBC6 of a putative membrane insertion site-deficient type (UBC6ΔC; 1 to 288 amino residues) is expressed better than wild type UBC6 in Escherichia coli and has high enzyme activity, so that UBC6ΔC was subjected to in vitro ubiquitination assay. Anti-Myc (9E10), anti-HA (Y-11), anti-Ubiquitin (FL-76), anti-BiP (N-20) and anti-actin (C-2) antibodies were purchased from Santa Cruz Biotech. Anti-FLAG (M2), anti-HA (3F10), anti-Ubiquitin (1B3), anti-GluR4 (AB1508) and anti-NSE (BBS/NC/VI-H14) were purchased from Sigma, Roche Diagnostics, MBL (Nagoya, Japan), Chemicon and Dako, respectively. Anti-UCH-L1 antibodies were provided by Dr. Keiji WADA (National Center of Neurology and Psychiatry, Japan). 293T cells derived from a human fetal kidney and SH-SY5Y cells derived from neuroblastoma were subjected to gene transfer, immunoprecipitation, Western blot, immunocytochemistry and cell death assay according to the method as described in Imai et al., 2000.
To confirm this prediction, the effect of a proteasome inhibitor and that of a UPR inducer on cell death resulting from the overexpression of Pael receptors were examined (FIG. 11). Vectors (−) having no gene inserted therein or expression plasmids for Pael receptors (+) were gene-transferred with expression plasmids for enhanced green fluorescent proteins (EGFP) to SH-SY5Y cells. The cells were then cultured in the presence (Lc, 20 μM) or the absence (non) of lactacysin, and the presence of tunicamycin (Tm, 5 μg/ml) or 2-ME (2 mM) for 16 hours. Cell death was counted by the method described in Imai, Y. et al. (2000) J Biol Chem 275, 35661-35664. In FIG. 11, the line of error indicates the standard deviation (S.D.) calculated from three experiments.

Pael receptor [1] = test: Immunocytochemistry, intracellular distribution of over-expressed Pael receptors in SH-SY5Y cells; assay type: cell-based, human; conditions: SH-SY5Y cells transfected with Pael receptor plasmids, treated for 6 hours
Procedure: For immunocytochemistry, a human Pael receptor expression vector (1 μg per sample) was gene-transferred, or was gene-transferred in combination with 0.3 μg of red fluorescent protein expression vector (pDsRed1-N1, Clontech) having endoplasmic reticulum localization sequence of calreticulin or Golgi body localization sequence of human β1, 4-galactosyltransferase into SH-SY5Y cells inoculated on a 8-well chamber slide. After 20 hours of culturing, the cells were exposed to 20 μM lactacystin for 16 hours. After washed in phosphate buffered saline, the cells were fixed with 0.2% glutaraldehyde and 2% formaldehyde. Subsequently, the cells were stained with anti-human Pael receptor antibodies or anti-BiP antibodies. For immunohistochemistry, the carboxyl terminal site (541 to 600 amino residues) of mouse Pael receptor was expressed as a GST fusion protein in Escherichia coli. The anti-Pael receptor polyclonal antibody was prepared against a recombinant protein from which the GST portion had been removed. 14 μm-thick frozen sections of the mouse C57BL/6 brain tissue were allowed to react with anti-Pael receptor antibodies (1:200 dilution), anti-TH antibodies (Chemicon, 1:100), anti-NeuN antibodies (Chemicon, 1:200) or anti-CNPase antibodies (Sigma, 1:100). The primary antibody was stained with Alexa 488 or Alexa 546 (Molecular Probes)-labeled secondary antibody. The stained cells or sections were mounted using SlowFade (Molecular probes), and then observed under a confocal laser fluorescence microscope (Fluoview, Olympus).
Furthermore, to confirm the involvement of cell death induced by misfolded proteins in cell death resulting from overexpression of Pael receptors, intracellular distribution of Pael receptors in the presence or the absence of lactacystin was examined. […] Expression plasmids for Pael receptors were gene-transferred to SH-SY5Y cells, and then the cells were cultured in the presence (middle and lower panels) or the absence (upper panel) of lactacystin for 6 hours. […]

Pael receptor [2] = test: Western blotting of 1% Triton X-100-soluble and -insoluble fractions of Pael receptor-transfected SH-SY5Y cells; assay type: cell-based, human; conditions: 16 hours, lactacystin 10 μM, tunicamycin 1 μg/ml, 2-ME 1 mM; for Pael receptors in the insoluble fraction: 1% Triton X-100-insoluble fraction; for expression of BiP (GRP78) and of endogenous Parkin in the soluble fraction: cells over-expressing Pael receptors
Procedure: Cells were suspended in a cytolysis buffer (consisting of 20 mM HEPES, pH 7.4, 120 mM NaCl, 5 mM EDTA, 10% glycerol, 1% Triton X-100 and Complete Protease Inhibitors [Roche Diagnostics]) and then lysed at 4° C. for 30 minutes. The forebrain cortex of the human cerebrum was suspended in a cytolysis buffer, and then crushed using a downs homogenizer. The sample was fractionated into surfactant-soluble and insoluble fractions, and then immuno-precipitated according to a modified method of Ward et al. (1995) Cell 83, 121-127. Specifically, the suspension was fractionated by centrifugation at 15,000×g for 30 minutes. The supernatant derived from 1% Triton X-100 soluble fraction was directly subjected to immunoprecipitation. The insoluble pellet fraction was washed 4 times in an ice-cooled cytolysis buffer. Subsequently, the fraction was subjected to lysis at 60° C. for 1 hour in a cytolysis buffer supplemented with sodium lauryl sulfate (SDS) with a final concentration of 1%. A cytolysis buffer containing 10 mM MgCl2 and 25 μg/ml DNase I and having a volume 10 times greater than that of the solution was added. The solution was allowed to react at 37° C. for 10 minutes. After centrifugation at 15,000×g for 30 minutes, the supernatant derived from 1% Triton X-100 insoluble fraction was subjected to immunoprecipitation using various antibodies and protein G-coupled or protein A/G (50/50%)-coupled Sepharose beads (Amersham-Pharmacia). The immunoprecipitate was washed 4 times in a cytolysis buffer containing no complete protease inhibitors. 1% Triton X-100-soluble and -insoluble fractions of total cell extract, or immunoprecipitates derived from the 1% Triton X-100-soluble fraction and -insoluble fraction were subjected to Western blot analysis using ECL detection reagent (Amersham-Pharmacia). Proteins were quantified using Coomassie protein assay reagent (Pierce).
Vectors (−) having no gene inserted therein or expression plasmids (+) for Pael receptors were gene-transferred to SH-SY5Y cells, and then the cells were cultured for 20 hours. Next, in the presence or the absence of lactacystin (10 μM) and in the presence of tunicamycin (1 μg/ml) or 2-mercaptoethanol (2-ME; 1 mM), the cells were cultured for 16 hours. The cells were lysed in a buffer containing 1% Triton X-100, and then fractionated by the method described in Ward et al., 1995 Cell 83, 121-127. Insoluble Pael receptors were immunoprecipitated as described above from the insoluble fraction of the same sample, and then analyzed using anti-Ub polyclonal antibodies (FIG. 10). 1% Triton-X100-insoluble or -soluble fraction was obtained under various conditions, including cases wherein Pael receptor cDNA had not been transfected (−) or transfected (+) to SH-SY5Y cells, and then subjected to Western blotting. Even in an untreated state, Pael receptors were already present in the insoluble fraction at a level equivalent to that of the soluble fraction.

Pael receptor [3] = test: Pulse-chase experiment, turnover of 35S-labeled Pael receptor; assay type: cell-based, human; conditions: 10 μM lactacystin, relative to level at time 0
Procedure: Pael receptors having FLAG-tagged carboxyl termini (Pael receptor-FLAG) and expression plasmids for Parkin or control plasmids were gene-transferred to SH-SY5Y cells. 36 hours later, the cells were cultured for 1 hour in Dulbecco's modified eagle's medium (M/C-free DMEM) containing 5% fetal calf serum (FCS) but containing no methionine/cysteine under conditions involving the presence or the absence of 10 μM lactacystin. The cells were then labeled at 37° C. for 30 minutes by adding 200 μCi/ml ^35S-methionine/cysteine to the 5% FCS-containing M/C-free DMEM in the presence or the absence of 10 μM lactacystin. […] The metabolically labeled Pael receptor was quantified using Image Gauge software (Fujifilm). Next, to examine whether Parkin degrades the Pael receptor in the ubiquitin-proteasome system, the turnover rate of the Pael receptor was measured under conditions involving the presence or the absence of Parkin by the pulse-chase experiment (FIG. 9). […] Subsequently, ^35S-methionine/cysteine were added for labeling, and then the cells were chased for the time indicated in FIG. 9 in the presence (Lc +) or the absence (Lc −) of 10 μM lactacystin. ^35S-labeld Pael receptors were immunoprecipitated, detected by radioautography (FIG. 9 left), and then quantified by phosphor imaging (FIG. 9 right). […]

[4] = Pael receptor-over-expressing SH-SY5Y cells, 16 hours, lactacystin 20 μM, tunicamycin 5 μg/ml, 2-ME 2 mM
[5] = control SH-SY5Y cells, 16 hours, tunicamycin 5 μg/ml, 2-ME 2 mM

OCCS [2-ME, 2-mercaptoethanol]
cells died (SH-SY5Y cells; [4]): approximately 60% | cells died (SH-SY5Y cells; [5]): 40% | intracellular distribution of Pael receptors (Pael receptor [1]): the same | Pael receptors in the insoluble fraction (Pael receptor [2]): increased with a high-molecular-weight shift | expression of BiP (GRP78) and of endogenous Parkin in the soluble fraction (Pael receptor [2]): caused increases

CC(=O)N[C@@H](CSC(=O)[C@]1([C@@H](O)C(C)C)NC(=O)[C@H](C)[C@@H]1O)C(=O)O [lactacystin]
cells died (SH-SY5Y cells; human, 16 h, 20 μM): approximately 50% | intracellular distribution of Pael receptors (Pael receptor [1]): accumulated in the endoplasmic reticulum | Pael receptors remained after 180 minutes of chasing (Pael receptor [3]; SH-SY5Y cells over-expressing Parkin): 58% | Pael receptors remained after 180 minutes of chasing (Pael receptor [3]; control SH-SY5Y cells): 54% | Pael receptors in the insoluble fraction (Pael receptor [2]): increased with a high-molecular-weight shift | expression of BiP (GRP78) and of endogenous Parkin in the soluble fraction (Pael receptor [2]): caused increases

tunicamycin
cells died (SH-SY5Y cells; [4]): approximately 60% | cells died (SH-SY5Y cells; [5]): 40% | intracellular distribution of Pael receptors (Pael receptor [1]): the same | Pael receptors in the insoluble fraction (Pael receptor [2]): increased with a high-molecular-weight shift | expression of BiP (GRP78) and of endogenous Parkin in the soluble fraction (Pael receptor [2]): caused increases
